What was measured:
PDE10A enzyme = PDE10A enzyme (Homo sapiens (Human), UniProt Q9Y233); assay: PDE10A inhibition assay; type: biochemical
Procedure: Active PDE10A enzyme is prepared in a number of ways for use in PDE assays (Loughney, K. et al. Gene 1999, 234, 109-117; Fujishige, K. et al. Eur J Biochem. 1999, 266, 1118-1127 and Soderling, S. et al. Proc. Natl. Acad. Sci. 1999, 96, 7071-7076). PDE10A can be expressed as full-length proteins or as truncated proteins, as long as they express the catalytic domain. PDE10A can be prepared in different cell types, for example insect cells or E. coli. […]
A PDE10A assay may for example, be performed as follows: The assay is performed in 60 uL samples containing a fixed amount of the relevant PDE enzyme (sufficient to convert 20-25% of the cyclic nucleotide substrate), a buffer (50 mM HEPES7.6; 10 mM MgCl2; 0.02% Tween20), 0.1 mg/ml BSA, 225 pCi of ^3H-labelled cyclic nucleotide substrate, tritium labeled cAMP to a final concentration of 5 nM and varying amounts of inhibitors. […] The beads are allowed to settle for one hr in the dark before the plates are counted in a Wallac 1450 Microbeta counter. The measured signal can be converted to activity relative to an uninhibited control (100%) and IC50 values can be calculated using the Xlfit extension to EXCEL.

[1] = rats; cited from earlier work
[2] = rats; cited from earlier work; remark: listed apart in the source
[3] = rats, cited from earlier work

PDE10A enzyme, sequence (Q9Y233 716-1055): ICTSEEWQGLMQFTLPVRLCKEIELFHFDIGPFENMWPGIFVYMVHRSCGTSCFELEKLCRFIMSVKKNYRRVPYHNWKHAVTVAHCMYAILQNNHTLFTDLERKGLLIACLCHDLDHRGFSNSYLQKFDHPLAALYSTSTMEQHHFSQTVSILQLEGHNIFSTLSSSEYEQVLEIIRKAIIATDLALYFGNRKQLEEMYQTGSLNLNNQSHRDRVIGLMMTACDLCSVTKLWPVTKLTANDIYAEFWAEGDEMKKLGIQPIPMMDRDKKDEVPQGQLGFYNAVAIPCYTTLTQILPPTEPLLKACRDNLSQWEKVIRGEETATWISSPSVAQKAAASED

IC50 (PDE10A enzyme) | Structure (SMILES) | hyperactivity induced by PCP [1] | reduction of amphetamine induced hyperactivity [2] | catalepsy on its own ([3]; alone) | cataleptic effect of the D2 receptor antagonist haloperidol ([3]; with haloperidol)
7.4 nM | Cc1ncc(C)n2nc(CCc3ccc4ccccc4n3)nc12 [2-[2-(5,8-Dimethyl-[1,2,4]triazolo[1,5-a]pyrazin-2-yl)-ethyl]-quinoline] | – | – | – | –
– | COc1ccc(Cc2nccc3cc(OC)c(OC)cc23)cc1OC [Papaverine] | reduced hyperactivity | insignificant | did not cause catalepsy on its own | potentiated the cataleptic effect
